The text below walks through data of patent publication US11365410B2, “Production and monitoring of metabolites in cells” (President and Fellows of Harvard College, priority 2015, dated 2022).

The target in data set [1] is T1, AcuR (Rhodobacter sphaeroides), regulator sequence SEQ ID NO: 9 (Cereibacter sphaeroides, UniProt Q3J6K8).
T1 construct: expressed in transfected cells; host or cells: E. coli DH5alpha transformed with pJKR-H (high copy) or pJKR-L (low copy) plasmid
T1 sequence (Q3J6K8 1-219): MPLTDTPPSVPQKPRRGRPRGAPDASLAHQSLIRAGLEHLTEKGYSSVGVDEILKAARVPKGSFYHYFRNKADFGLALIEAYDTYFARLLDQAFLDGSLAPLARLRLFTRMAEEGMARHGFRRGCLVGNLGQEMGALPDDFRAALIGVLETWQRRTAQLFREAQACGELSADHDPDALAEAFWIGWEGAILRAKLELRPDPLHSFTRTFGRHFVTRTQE
The data set is described as follows: AcuR biosensor induction (sfGFP reporter, Hill fit). To be noted: acrylate. The data set is classed as cell-based. The text has this:
Plasmids were constructed using Gibson isothermal assembly methods (see Gibson, D. G., Young, L., Chuang, R. Y., Venter, J. C., Hutchison, C. A., 3rd and Smith, H. O. (2009) Enzymatic assembly of DNA molecules up to several hundred kilobases. Nat Methods, 6, 343-345 incorporated herein by reference in its entirety) and transformed into DH5α electrocompetent cells (New England Biolabs, Ipswich Mass.). […] Each inducible system was implemented on high and low copy plasmids. High copy pJKR-H plasmids were constructed with the pUC origin and beta lactamase antibiotic resistance marker derived from pUC19 (New England Biolabs, Ipswich Mass.). Low copy pJKR-L plasmids were constructed in the same way, except that the pUC origin was replaced by the SC101 origin (including repA) from pSC101 obtained from American Type Culture Collection (ATCC #37032). […] In both these plasmids the antibiotic resistance gene and origin of replication were replaced with p15a-aadA and colA-kanR. Each enzyme was cloned downstream of the constitutive promoter P2 (see Mutalik, V. K., Guimaraes, J. C., Cambray, G., Lam, C., Christoffersen, M. J., Mai, Q. A., Tran, A. B., Paull, M., Keasling, J. D., Arkin, A. P. et al. (2013) Precise and reliable gene expression via standard transcription and translation initiation elements. Nat Methods, 10, 354-360 hereby incorporated by reference in its entirety) and g10 RBS to create pJKR-MIOX variants. These expression plasmids used the colA origin of replication and kanamycin resistance gene for maintenance. Sequences and plasmids are available on Addgene (plasmid numbers 62557-62570).
DH5α cells transformed with pJKR plasmids and maintained with carbenicillin were used in the induction assays. For each induction evaluation experiment, the cells were grown overnight to saturation before being diluted 1:100 into fresh LB media and incubated at 200 RPM and 37° C. […] Measurements were made on the same Biotek (Winooksi, Vt.) HT plate reader using the same settings: excitation 485/20, emission 528/20, 37° C. and fast shaking. Fluorescence and absorbance were measured every 10 minutes for 15 hours. Fluorescence was measured in arbitrary units (AFU) while optical density was determined by absorbance (OD). Normalized fluorescence was determined by dividing fluorescence by optical density for a given measurement. […]
The ratio of fluorescence to absorbance at 600 nm was used in order to compensate for changes in cell density over time and between experiments (AFU/OD). […] This transfer function is plotted on a log-log scale in FIG. 1A and FIG. 1B to capture the wide range of inducer concentrations and resulting fluorescence values. […]

A further data set relates to E. coli DH5α cells. The experiment in a line: Toxicity of inducer chemicals (growth). The protocol:
Growth rate was measured for each combination of chemical and concentration during the exponential phase of growth. Rates were normalized to the growth rate of cells without any added chemical and plotted as bar height. Concentration of each inducer is indicated in the table, corresponding to the bar chart by order and color. […] Inducer concentrations mirror the concentrations used in the induction experiments.
150 μl of cells were transferred into 96-well plates and the assayed chemical was immediately added in triplicate before further incubation at 600 RPM and 37° C.
Toxicity of the inducer chemicals was measured to help guide the choice of inducer concentration for biosensor applications. In applications where maximum protein production is the goal, toxicity will be less of a consideration. In contrast, sub-toxic induction is important for complex circuits that require the cell to maintain a healthy cell state.

In a further data set the test system is acuR. The experiment in a line: acuR-based 3HP biosensor induction (indirect, via acrylate). The data set is classed as cell-based, Rhodobacter sphaeroides. The conditions noted are these: acrylate; no helper plasmid. The protocol:
Metab Eng, 16, 130-139 hereby incorporated by reference in its entirety). All three reactions are useful for a prpR-based biosensor, but for the acuR-based biosensor, accumulation of acrylyl-CoA rather than propionyl-CoA is necessary. […] Accordingly, the domain responsible for conversion of acrylyl-CoA to propionyl-CoA was removed while preserving the activity of the other two domains. […] A 90-fold increase in fluorescence was obtained when the acuR-based biosensor was induced with 10 mM 3HP. […] Fluorescence remained at background levels for greater than 16 hours in the absence of pcs^Δ3 and ach (see FIG. 17).
Plasmids were constructed using Gibson isothermal assembly methods (see Gibson, D. G., Young, L., Chuang, R. Y., Venter, J. C., Hutchison, C. A., 3rd and Smith, H. O. (2009) Enzymatic assembly of DNA molecules up to several hundred kilobases. Nat Methods, 6, 343-345 hereby incorporated by reference in its entirety) and cloned into DH5α electrocompetent cells purchased from New England Biolabs. Biosynthesis of product molecules was carried out in either BL21 (DE3) or DH5α. The prpR-based 3HP biosensor was implemented as a two-plasmid system. The first plasmid is pPro24-GFP (Addgene plasmid #18880), which expresses GFPuv under the control of the methyl-citrate responsive transcription factor, prpR, on a pBR322 origin of replication providing β-lactam resistance. […]

In data set [2] the target is T2, TtgR (Pseudomonas putida), regulator sequence SEQ ID NO: 14 (Pseudomonas putida, UniProt Q9AIU0).
T2 construct: expressed in transfected cells; host or cells: E. coli DH5alpha transformed with pJKR-H (high copy) or pJKR-L (low copy) plasmid
To be noted: no test described; cited from earlier work.

Consider `C=CC(=O)O` [Acrylate, acrylate], for which the entries for the “Hill Coefficient” value in data set [1] (high copy) and in data set [1] (low copy) were 3.2 ± 0.3 and 1.3 ± 0.1, respectively. The entries for the “Max Expression Velocity” value in data set [1] (high copy) and in data set [1] (low copy) were 910 ± 40 s⁻¹ and 150 ± 10 s⁻¹, respectively. Moreover, the “Toxicity in induction experiment” value in the data set on E. coli DH5α cells (10 mM acrylate) is given as “high toxicity”. Further, the Toxicity result with E. coli DH5α cells (acrylate 5 mM and 10 mM) was “substantial toxicity”. For the same compound, the “Response of acrylate biosensor without helper plasmid” value in the data set with acuR was “respond to acrylate”.
On to `O=C(N[C@H](CO)[C@H](O)c1ccc([N+](=O)[O-])cc1)C(Cl)Cl` [Chloramphenicol, chloramphenicol], for which the “Activation of TtgR by chloramphenicol” value in data set [2] is “activation”.
